Like-named read-outs stand apart in the source and are kept apart here.
Tested on: HCV pseudoparticles, genotype 1a HCV E1 and E2 envelope (H77C isolate)
Experiment: HCV pseudoparticle infection assay (luciferase reporter, Huh7 cells)
Assay type: cell-based
Conditions: Hepatitis C virus, Huh-7, 48 h
[1] = read-out: EC50 (nM) 1a (H77C), class symbol, HCV pseudoparticles genotype 1a (H77C), luciferase 2 days after infection

Structure (SMILES)	EC50 [1] [nM]	EC50 (read-out: EC50 (nM) 1a (H77C), numeric value, HCV pseudoparticles genotype 1a (H77C), luciferase 2 days after infection) [nM]
O=C1NCCCNCCCCOc2ccc(cc2)CNc2nc(nc(OCC(F)(F)F)n2)Nc2ccc1cc2 [Example 4017]	0.1 to 100	
COC(=O)N1CCCOc2ccc(cc2)CNc2nc(nc(OCC(F)(F)F)n2)Nc2ccc(cc2)C(=O)NCC1 [Example 6006]	0.1 to 100	
O=C1NCc2ccc(cc2)CNc2nc(nc(OCC(F)(F)F)n2)Nc2ccc(cc2)CNC(=O)OCCOCCOCCO1 [Example 0067]	100 to 1000	
CC1(C)C(=O)NCc2ccc(cc2)CNc2nc(nc(OCC(F)(F)F)n2)Nc2ccc(cc2)CNC1=O [Example 0071]	100 to 1000	
CC(C)NC(=O)N1CCCCNC(=O)c2ccc(cc2)Nc2nc(nc(OCC(F)(F)F)n2)NCc2ccc(cc2)OCC1 [Example 4008]	0.1 to 100	
CC(C)OC(=O)N1CCCCOc2ccc(cc2)CNc2nc(nc(OCC(F)(F)F)n2)Nc2ccc(cc2)C(=O)NCCC1 [Example 4025]	0.1 to 100	
CCC(=O)N1CCCCNC(=O)c2ccc(cc2)Nc2nc(nc(OCC(F)(F)F)n2)NCc2ccc(cc2)OCC1 [Example 4003]	0.1 to 100	
O=C1NCCCCCCNC(=O)NCc2ccc(cc2)Nc2nc(nc(OCC(F)(F)F)n2)NCc2ccc(cc2)CN1 [Example 0055]	100 to 1000	
CCNC(=O)N1CCCOc2ccc(cc2)CNc2nc(nc(OCC(F)(F)F)n2)Nc2ccc(cc2)C(=O)NCC(C)(C)C1 [Example 6028]	0.1 to 100	
CNC(=O)N1CCCCCCCCNc2nc(nc(OCC(F)(F)F)n2)Nc2ccc(cc2)C(=O)NCCC1 [Example 9006]	0.1 to 100	
CN(C)CCCN1CCCNC(=O)c2ccc(cc2)Nc2nc(nc(OCC(F)(F)F)n2)Nc2ccc(cc2)C1=O [Example 0023]	100 to 1000	
CC(C)(C)OC(=O)N1CCCCOc2ccc(cc2)CNc2nc(nc(OCC(F)(F)F)n2)Nc2ccc(cc2)C(=O)NCCC1 [Example 4026]	0.1 to 100	
CN1CCCN(C)CCCN(C)C(=O)c2ccc(cc2)Nc2nc(nc(OCC(F)(F)F)n2)Nc2ccc(cc2)C(=O)N(C)CCC1 [Example 0024]	1000 to 5000	16300
